In experiment [1] the target is T1, CDK4/cyclin D3 (Homo sapiens, UniProt P11802).
T1 construct: purchased Carna Biosciences, Inc. QS S Assist CDK4/Cyclin D3_FP Kit
Briefly: Human CDK4/cyclin D3 inhibitory activity (QS S Assist CDK4/Cyclin D3_FP Kit, IMAP fluorescent polarization). Particulars: read-out: CDK4 Activity symbol. The class given is biochemical. A digest of the protocol: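 Kinase reactions used kit CDK4/cyclin D3 at 12.5–25 ng/well with the kit ATP/substrate/metal mix in 20 mM HEPES (pH 7.4), 0.01% Tween20 and 2 mM DTT, run 45 min at room temperature. Phosphorylation was detected by IMAP fluorescence polarization (ex 485/em 535 nm) after 30 min binding in the dark. IC50 was fitted from percent inhibition against DMSO controls with and without enzyme.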

For experiment [2], the target named is T2, CDK2/cyclin A2 (Homo sapiens, UniProt P24941).
T2 construct: purchased Carna Biosciences, Inc. QS S Assist CDK2/Cyclin A2_FP Kit
Description: Human CDK2/cyclin A2 inhibitory activity (QS S Assist CDK2/Cyclin A2_FP Kit, IMAP fluorescent polarization). The class given is biochemical. The conditions noted are these: read-out: CDK2 Activity symbol. A digest of the protocol: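 Kit CDK2/cyclin A2 (2.5 ng/well) was reacted with kit ATP/substrate/metal in 20 mM HEPES pH 7.4, 0.01% Tween 20 and 2 mM DTT for 60 min at room temperature. IMAP binding reagent was added for 30 min, then fluorescence polarization was read at 485/535 nm. IC50 came from dose-response fitting of percent inhibition.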

The structures appear in SMILES notation.

T1 sequence (P11802 whole entry): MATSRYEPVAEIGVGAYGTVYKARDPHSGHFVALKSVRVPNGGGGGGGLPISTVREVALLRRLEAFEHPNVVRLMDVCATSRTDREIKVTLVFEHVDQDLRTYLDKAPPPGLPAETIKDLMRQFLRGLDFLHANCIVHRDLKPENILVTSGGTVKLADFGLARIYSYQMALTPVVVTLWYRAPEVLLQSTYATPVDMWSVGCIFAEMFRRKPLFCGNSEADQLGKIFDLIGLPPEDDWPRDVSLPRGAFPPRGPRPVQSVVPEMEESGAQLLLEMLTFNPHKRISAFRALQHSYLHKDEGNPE
T1 sequence (P30281 whole entry partner): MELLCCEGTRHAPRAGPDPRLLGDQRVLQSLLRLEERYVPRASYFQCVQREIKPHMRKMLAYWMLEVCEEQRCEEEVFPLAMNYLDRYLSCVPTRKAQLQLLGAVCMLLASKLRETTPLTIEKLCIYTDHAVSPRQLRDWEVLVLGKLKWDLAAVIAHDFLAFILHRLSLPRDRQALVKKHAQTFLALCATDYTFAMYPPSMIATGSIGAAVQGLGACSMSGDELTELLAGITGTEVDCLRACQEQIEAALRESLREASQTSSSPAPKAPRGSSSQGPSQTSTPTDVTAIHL

As for `C[C@@H](O)c1cc2cnc(Nc3ccc4c(n3)CCN(C(=O)CN3CC5(COC5)C3)C4)nc2c(N2CCCCC2)n1` [Compound 266], the IC50 in experiment [1] is less than 10 nM; in experiment [2], no less than 100 nM.
With `C[C@@H](O)c1cc2cnc(Nc3ccc4c(n3)CCN(C(=O)CN3CC5(CC(O)C5)C3)C4)nc2c(N2C3CCC2CC3)n1` [Compound 267], the IC50 was less than 10 nM in experiment [1] and no less than 100 nM in experiment [2].
In the case of `C[C@@H](O)c1cc2cnc(Nc3ccc4c(n3)CCN(C(=O)CN3CC5(CC(O)C5)C3)C4)nc2c(N2CCCCC2)n1` [Compound 268], the IC50 in experiment [1] is less than 10 nM; in experiment [2], no less than 100 nM.
On to `C[C@@H](O)c1cc2cnc(Nc3ccc4c(n3)CCN(C(=O)CN3CC(F)C3)C4)nc2c(N2CCCCC2)n1` [Compound 269], for which the IC50 was less than 10 nM in experiment [1] and no less than 100 nM in experiment [2].
For `C[C@@H](O)c1cc2cnc(Nc3ccc4c(n3)CCN(C(=O)CN3CCC3)C4)nc2c(N2CCCCC2)n1` [Compound 270], the values for the IC50 in experiment [1] and in experiment [2] were less than 10 nM and no less than 100 nM, respectively.
Regarding `C[C@@H](O)c1cc2cnc(Nc3ccc(CN4CCN(CCO)CC4)cn3)nc2c(N2CCC(C#N)CC2)n1` [Compound 271], the IC50 is less than 10 nM in experiment [1] and no less than 100 nM in experiment [2].
On to `C[C@@H](O)c1cc2cnc(Nc3ccc(N4CCNCC4=O)cn3)nc2c(N2CCC(C#N)CC2)n1` [Compound 272], for which the IC50 is less than 10 nM in experiment [1] and no less than 100 nM in experiment [2].
For the molecule `C[C@@H](O)c1cc2cnc(Nc3ccc(N4CCNCC4)nn3)nc2c(N2CCC(C#N)CC2)n1` [Compound 273], the IC50 in experiment [1] is less than 10 nM; in experiment [2] it was no less than 100 nM.
The corresponding values for `C[C@@H](O)c1cc2cnc(Nc3ccc4c(n3)CCNC4)nc2c(N2CCC(C#N)CC2)n1` [Compound 274] are less than 10 nM and no less than 100 nM.
On to `OCCN1CCN(Cc2ccc(Nc3ncc4cc(C5COC5)nc(N5CCCCC5)c4n3)nc2)CC1` [Compound 275], for which the IC50 in experiment [1] is less than 10 nM; in experiment [2], no less than 100 nM.
As to `O=C1CCNCCN1c1ccc(Nc2ncc3cc(C4COC4)nc(N4CCCCC4)c3n2)nc1` [Compound 276], the IC50 in experiment [1] is less than 10 nM; in experiment [2], no less than 100 nM.
As for `c1cc(N2CCNCC2)nnc1Nc1ncc2cc(C3COC3)nc(N3CCCCC3)c2n1` [Compound 277], the values for the IC50 in experiment [1] and in experiment [2] were 10 to 100 nM and no less than 100 nM, respectively.
In the case of `C[C@@H](O)c1cc2cnc(Nc3ccc4c(n3)CCN(CCO)C4)nc2c(N2CCC(C#N)CC2)n1` [Compound 278], the IC50 is less than 10 nM in experiment [1] and no less than 100 nM in experiment [2].
For the molecule `C[C@@H](O)c1cc2cnc(Nc3ccc4c(n3)CCN(C3CN(C)C3)C4)nc2c(N2CCC(C#N)CC2)n1` [Compound 279], the results for the IC50 in experiment [1] and in experiment [2] were less than 10 nM and no less than 100 nM, respectively.
Consider `CC(O)c1cc2cnc(Nc3ccc4c(n3)CC3CCC4N3CCO)nc2c(N2CCCCC2)n1` (stereo not shown) [Compound 280], for which the results for the IC50 in experiment [1] and in experiment [2] were 10 to 100 nM and no less than 100 nM, respectively.
For the molecule `C[C@@H](O)c1cc2cnc(Nc3ccc(N4CCNCC4=O)cn3)nc2c(N2C3CCCC2CC3)n1` [Compound 281], the IC50 in experiment [1] is less than 10 nM; in experiment [2], no less than 100 nM.
The like results for `C[C@@H](O)c1cc2cnc(Nc3ccc4c(n3)CCN(C3CCOCC3)C4)nc2c(N2CCCCC2)n1` [Compound 282] were, in that order, less than 10 nM and no less than 100 nM.
Take `C[C@@H](O)c1cc2cnc(Nc3ccc4c(n3)CCN([C@H]3CC[C@H](O)CC3)C4)nc2c(N2CCCCC2)n1` [Compound 283]: the IC50 was 10 to 100 nM in experiment [1] and no less than 100 nM in experiment [2].
The like results for `C[C@@H](O)c1cc2cnc(Nc3ccc4c(n3)CCN([C@H]3CC[C@@H](O)CC3)C4)nc2c(N2CCCCC2)n1` [Compound 284] were, in that order, 10 to 100 nM and no less than 100 nM.
The corresponding values for `C[C@@H](O)c1cc2cnc(Nc3ccc4c(n3)CCN(C(=O)Cc3ccncc3)C4)nc2c(N2CCCCC2)n1` [Compound 285] are 10 to 100 nM and no less than 100 nM.
Regarding `C[C@@H](O)c1cc2cnc(Nc3ccc4c(n3)CCN(C(=O)Cn3ccnc3)C4)nc2c(N2CCCCC2)n1` [Compound 286], the IC50 in experiment [1] was less than 10 nM; in experiment [2], no less than 100 nM.
For the molecule `C[C@@H](O)c1cc2cnc(Nc3ccc(N4CCNCC4)cn3)nc2c(N2CCOC[C@@H]2C)n1` [Compound 288], the IC50 in experiment [1] was less than 10 nM; in experiment [2], no less than 100 nM.
Consider `CC(O)c1cc2cnc(Nc3ccc(N4CCNCC4)cn3)nc2c(N2CCOCC2C)n1` (stereo not shown) [Compound 289], for which the IC50 was less than 10 nM in experiment [1] and no less than 100 nM in experiment [2].
As for `C[C@@H](O)c1cc2cnc(Nc3ccc(CN4CCN(C)CC4)cn3)nc2c(N2CCOC[C@@H]2C)n1` [Compound 290], the IC50 in experiment [1] was less than 10 nM; in experiment [2], no less than 100 nM.
As for `CC(O)c1cc2cnc(Nc3ccc(CN4CCN(C)CC4)cn3)nc2c(N2C3CCC2COC3)n1` (stereo not shown) [Compound 292], the IC50 in experiment [1] is less than 10 nM; in experiment [2], no less than 100 nM.
As for `C[C@@H](O)c1cc2cnc(Nc3ccc(CN4CCN(CCO)CC4)cn3)nc2c(N2CCOC[C@@H]2C)n1` [Compound 293], the IC50 in experiment [1] was 10 to 100 nM; in experiment [2], no less than 100 nM.
For `CC(O)c1cc2cnc(Nc3ccc(CN4CCN(CCO)CC4)cn3)nc2c(N2CCOCC2C)n1` (stereo not shown) [Compound 294], the IC50 in experiment [1] was less than 10 nM; in experiment [2], no less than 100 nM.
The like results for `CC(O)c1cc2cnc(Nc3ccc(CN4CCN(CCO)CC4)cn3)nc2c(N2C3CCC2COC3)n1` (stereo not shown) [Compound 295] were, in that order, less than 10 nM and no less than 100 nM.
As to `Cc1nc(Nc2ncc3cc([C@@H](C)O)nc(N4CCOC[C@@H]4C)c3n2)ccc1N1CCNCC1` [Compound 296], the results for the IC50 in experiment [1] and in experiment [2] were less than 10 nM and no less than 100 nM, respectively.
The like results for `Cc1nc(Nc2ncc3cc([C@@H](C)O)nc(N4CCOC[C@H]4C)c3n2)ccc1N1CCNCC1` [Compound 297] were, in that order, less than 10 nM and no less than 100 nM.
For the molecule `Cc1nc(Nc2ncc3cc([C@@H](C)O)nc(N4C5CCC4COC5)c3n2)ccc1N1CCNCC1` [Compound 298], the IC50 in experiment [1] was less than 10 nM; in experiment [2], no less than 100 nM.
For `C[C@@H](O)c1cc2cnc(Nc3ccc(N4CCNCC4=O)cn3)nc2c(N2CCOC[C@@H]2C)n1` [Compound 299], the IC50 in experiment [1] is 10 to 100 nM; in experiment [2] it was no less than 100 nM.
On to `CC(O)c1cc2cnc(Nc3ccc(N4CCNCC4=O)cn3)nc2c(N2CCOCC2C)n1` (stereo not shown) [Compound 300], for which the IC50 in experiment [1] is 10 to 100 nM; in experiment [2] it was no less than 100 nM.
Take `CC(O)c1cc2cnc(Nc3ccc(N4CCNCC4=O)cn3)nc2c(N2C3CCC2COC3)n1` (stereo not shown) [Compound 301]: the values for the IC50 in experiment [1] and in experiment [2] were 10 to 100 nM and no less than 100 nM, respectively.
The like results for `CC(O)c1cc2cnc(Nc3ccc(N4CCNCC4=O)cn3)nc2c(N2CCCC2C)n1` (stereo not shown) [Compound 302] were, in that order, less than 10 nM and 10 to 100 nM.
The corresponding values for `CC(O)c1cc2cnc(Nc3ccc(N4CCNCC4=O)cn3)nc2c(N2CCCCC2C)n1` (stereo not shown) [Compound 303] are less than 10 nM and no less than 100 nM.
As to `C[C@@H](O)c1cc2cnc(Nc3ccc(C(=O)N4CCCN(C)CC4)cn3)nc2c(N2CCCCC2)n1` [Compound 304], the values for the IC50 in experiment [1] and in experiment [2] were less than 10 nM and 10 to 100 nM, respectively.
For `Cc1nc(Nc2ncc3cc([C@@H](C)O)nc(N4CCCCC4)c3n2)ccc1N1CCCNCC1=O` [Compound 305], the figures for the IC50 in experiment [1] and in experiment [2] were less than 10 nM and 10 to 100 nM, respectively.
